The record followed here is ChEMBL document CHEMBL3588753, “Recent progress in the drug development of coumarin derivatives as potent antituberculosis agents” (2015).

Molecules are shown by their SMILES. Converted amounts (≈) assume the structure as drawn.

In the assay the test system is Mycobacterium tuberculosis variant bovis. Kind of assay: Antimycobacterial activity against Mycobacterium bovis. The assay is classed as functional.
Regarding `COC(=O)C1C(=O)Oc2ccc(Br)cc2C1C(=O)NC1CCCCC1` (stereo not drawn), the MIC came out at 15.6 mg/L (≈ 38 µM). As to `CC(C)COC(=O)C1C(=O)Oc2ccccc2C1C(=O)NC1CCCCC1` (stereo not drawn), the minimal inhibitory concentration (MIC) was 15.6 mg/L (≈ 41.8 µM). The figure for `O=C(OCc1ccc(F)cc1)C1C(=O)Oc2ccc(Br)cc2C1C(=O)NC1CCCCC1` (stereo not drawn) is 15.6 mg/L (≈ 30.9 µM).
